Results reported in PubChem BioAssay (NCI).
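All cell lines were grown in 96-well plates and treated with compound for 48 hours. Definition used: TGI = concentration required for complete inhibition of growth.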

System: A498 renal
Experiment: NCI anticancer screen, dose series, 48 h

`Cc1cc2nc3[nH]c4c(Cl)cc(Cl)cc4c3nc2cc1C` and `Cn1c(CCC2(C)Cc3ccccc3C(=O)O2)cc2ccccc2c1=O` (stereo not given) cannot be ordered by TGI: > 100 µM for the first, > 100 µM for the second.

System: CCRF-CEM leukemia
Experiment: NCI anticancer screen, dose series, 48 h

Compared with `C[C@]12OC(=O)[C@]3(O)CC[C@H]4[C@@H](C[C@@H](O)[C@@]5(Cl)CC=CC(=O)[C@]45C)[C@]45OCC6C(=O)O[C@@H]1C[C@@]6(C)[C@H](C4=O)[C@@]32O5` (stereo not given in full), `O=C(NC(N1CCN(c2cc3c(cc2F)c(=O)c(C(=O)O)cn3C2CC2)CC1)(C(F)(F)F)C(F)(F)F)c1ccccc1` is 11-fold higher in TGI: 6.69 µM for the first, 72.3 µM for the second.

`COc1ccc2nc3n[nH]c(N)c3nc2c1` and `Cc1cc2nc3[nH]c4c(Cl)cc(Cl)cc4c3nc2cc1C` cannot be ordered by TGI: > 25.7 µM for the first, > 100 µM for the second.

Compound `Cn1c(CCC2(C)Cc3ccccc3C(=O)O2)cc2ccccc2c1=O` (stereo not given) has a TGI of 27 µM.

System: 786-0 renal
Experiment: NCI anticancer screen, dose series, 48 h

Compared with `C[C@]12OC(=O)[C@]3(O)CC[C@H]4[C@@H](C[C@@H](O)[C@@]5(Cl)CC=CC(=O)[C@]45C)[C@]45OCC6C(=O)O[C@@H]1C[C@@]6(C)[C@H](C4=O)[C@@]32O5` (stereo not given in full), `O=C(NC(N1CCN(c2cc3c(cc2F)c(=O)c(C(=O)O)cn3C2CC2)CC1)(C(F)(F)F)C(F)(F)F)c1ccccc1` is higher in TGI: 11.3 µM for the first, > 100 µM for the second.

`COc1ccc2nc3n[nH]c(N)c3nc2c1` and `Cc1cc2nc3[nH]c4c(Cl)cc(Cl)cc4c3nc2cc1C` cannot be ordered by TGI: > 65.9 µM for the first, > 100 µM for the second.

With `Cn1c(CCC2(C)Cc3ccccc3C(=O)O2)cc2ccccc2c1=O` (stereo not given) the TGI was > 100 µM.

System: KM12 colon
Experiment: NCI anticancer screen, dose series, 48 h

Going from `C[C@]12OC(=O)[C@]3(O)CC[C@H]4[C@@H](C[C@@H](O)[C@@]5(Cl)CC=CC(=O)[C@]45C)[C@]45OCC6C(=O)O[C@@H]1C[C@@]6(C)[C@H](C4=O)[C@@]32O5` (stereo not given in full) to `O=C(NC(N1CCN(c2cc3c(cc2F)c(=O)c(C(=O)O)cn3C2CC2)CC1)(C(F)(F)F)C(F)(F)F)c1ccccc1`, the TGI rises from 8.59 µM to 84.4 µM (9.8-fold).

`COc1ccc2nc3n[nH]c(N)c3nc2c1` and `Cc1cc2nc3[nH]c4c(Cl)cc(Cl)cc4c3nc2cc1C` cannot be ordered by TGI: > 93 µM for the first, > 100 µM for the second.

Compound `Cn1c(CCC2(C)Cc3ccccc3C(=O)O2)cc2ccccc2c1=O` (stereo not given) has a TGI of 23.3 µM.

System: PC-3 prostate
Experiment: NCI anticancer screen, dose series, 48 h

First: C[C@]12OC(=O)[C@]3(O)CC[C@H]4[C@@H](C[C@@H](O)[C@@]5(Cl)CC=CC(=O)[C@]45C)[C@]45OCC6C(=O)O[C@@H]1C[C@@]6(C)[C@H](C4=O)[C@@]32O5 (stereo not given in full)
Second: O=C(NC(N1CCN(c2cc3c(cc2F)c(=O)c(C(=O)O)cn3C2CC2)CC1)(C(F)(F)F)C(F)(F)F)c1ccccc1
The TGI of the first is lower: 8.71 µM for the first, > 100 µM for the second.

First: COc1ccc2nc3n[nH]c(N)c3nc2c1
Second: Cc1cc2nc3[nH]c4c(Cl)cc(Cl)cc4c3nc2cc1C
The TGI of the first is lower: 36.9 µM for the first, > 100 µM for the second.

For `Cn1c(CCC2(C)Cc3ccccc3C(=O)O2)cc2ccccc2c1=O` (stereo not given), the TGI was 46.5 µM.

System: TK-10 renal
Experiment: NCI anticancer screen, dose series, 48 h

Compared with `C[C@]12OC(=O)[C@]3(O)CC[C@H]4[C@@H](C[C@@H](O)[C@@]5(Cl)CC=CC(=O)[C@]45C)[C@]45OCC6C(=O)O[C@@H]1C[C@@]6(C)[C@H](C4=O)[C@@]32O5` (stereo not given in full), `O=C(NC(N1CCN(c2cc3c(cc2F)c(=O)c(C(=O)O)cn3C2CC2)CC1)(C(F)(F)F)C(F)(F)F)c1ccccc1` is 12-fold higher in TGI: 7.18 µM for the first, 87.4 µM for the second.

Going from `COc1ccc2nc3n[nH]c(N)c3nc2c1` to `Cc1cc2nc3[nH]c4c(Cl)cc(Cl)cc4c3nc2cc1C`, the TGI falls from > 75.7 µM to 56.4 µM.

System: RPMI-8226 leukemia
Experiment: NCI anticancer screen, dose series, 48 h

Going from `C[C@]12OC(=O)[C@]3(O)CC[C@H]4[C@@H](C[C@@H](O)[C@@]5(Cl)CC=CC(=O)[C@]45C)[C@]45OCC6C(=O)O[C@@H]1C[C@@]6(C)[C@H](C4=O)[C@@]32O5` (stereo not given in full) to `O=C(NC(N1CCN(c2cc3c(cc2F)c(=O)c(C(=O)O)cn3C2CC2)CC1)(C(F)(F)F)C(F)(F)F)c1ccccc1`, the TGI rises from 8.6 µM to 69.9 µM (8.1-fold).

Going from `COc1ccc2nc3n[nH]c(N)c3nc2c1` to `Cc1cc2nc3[nH]c4c(Cl)cc(Cl)cc4c3nc2cc1C`, the TGI rises from 19 µM to > 100 µM.

Work on `Cn1c(CCC2(C)Cc3ccccc3C(=O)O2)cc2ccccc2c1=O` (stereo not given) yielded a TGI of 48 µM.

System: HCT-116 colon
Experiment: NCI anticancer screen, dose series, 48 h

First: C[C@]12OC(=O)[C@]3(O)CC[C@H]4[C@@H](C[C@@H](O)[C@@]5(Cl)CC=CC(=O)[C@]45C)[C@]45OCC6C(=O)O[C@@H]1C[C@@]6(C)[C@H](C4=O)[C@@]32O5 (stereo not given in full)
Second: O=C(NC(N1CCN(c2cc3c(cc2F)c(=O)c(C(=O)O)cn3C2CC2)CC1)(C(F)(F)F)C(F)(F)F)c1ccccc1
The TGI of the first is lower: 12 µM for the first, > 100 µM for the second.

`COc1ccc2nc3n[nH]c(N)c3nc2c1` and `Cc1cc2nc3[nH]c4c(Cl)cc(Cl)cc4c3nc2cc1C` cannot be ordered by TGI: > 32.8 µM for the first, > 100 µM for the second.
